Measurements: US12415770B2, “Modulators of liver receptor homologue 1 (LRH-1) and uses” (Emory University, priority 2017, dated 2025)
Entries after “also recorded” stand apart in the source; their conditions may differ.

Assays:
[1] = cited from earlier work
LRH-1 LBD = biological target: T1, LRH-1 LBD (Homo sapiens, UniProt O00482); test: Thermofluor (DSF) assay, purified LRH-1 LBD-His protein; type: binding; details: for ΔTm at 50 µM / ΔTm (mean +/− SEM) (° C.): 50 μM compound, relative to DLPC-bound LRH-1; for ΔTm at 50 µM: read-out: ΔTm (mean +/− SEM) (° C.)
T1 construct: LRH-1 LBD (residues 299-541) in the pMSC7 vector was expressed in BL21 (DE3) pLysS E. coli; made in house; host or cells: E. coli BL21 (DE3) pLysS
Summary of the method: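 Purified His-tagged LRH-1 LBD (0.2 mg/ml) was incubated overnight at 4° C with 50 μM compound (1% DMSO final), then SYPRO orange was added. Samples were heated at 0.5° C per minute. Tm came from Boltzmann fits after subtracting no-protein baseline fluorescence.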

LRH-1 = biological target: T2, LRH-1 (Homo sapiens, UniProt O00482); test: Luciferase reporter assay (SHP-luc) in HeLa cells transfected with full-length LRH-1; type: cell-based; details: for Relative Efficacy: fold increase over baseline (DMSO-treated cells) relative to the fold increase induced by RJW100
T2 construct: The transfected plasmids included full-length LRH-1 in a pCI vector; expressed in transfected cells; host or cells: HeLa
Experimental: EC50 and Relative Activity values were calculated from luciferase reporter assays.

H390A-LRH-1 = H390A-LRH-1 (Homo sapiens, UniProt O00482, H390A); test: Luciferase reporter assay (SHP-luc), H390A mutant LRH-1; details: His-390 mutated to alanine
[2] = diabetic mice fed DLPC, mouse models of insulin resistance
[3] = HeLa cells, SHP-luc reporter, 24 hours, 0.03-30 μM

T2 sequence (O00482 whole entry): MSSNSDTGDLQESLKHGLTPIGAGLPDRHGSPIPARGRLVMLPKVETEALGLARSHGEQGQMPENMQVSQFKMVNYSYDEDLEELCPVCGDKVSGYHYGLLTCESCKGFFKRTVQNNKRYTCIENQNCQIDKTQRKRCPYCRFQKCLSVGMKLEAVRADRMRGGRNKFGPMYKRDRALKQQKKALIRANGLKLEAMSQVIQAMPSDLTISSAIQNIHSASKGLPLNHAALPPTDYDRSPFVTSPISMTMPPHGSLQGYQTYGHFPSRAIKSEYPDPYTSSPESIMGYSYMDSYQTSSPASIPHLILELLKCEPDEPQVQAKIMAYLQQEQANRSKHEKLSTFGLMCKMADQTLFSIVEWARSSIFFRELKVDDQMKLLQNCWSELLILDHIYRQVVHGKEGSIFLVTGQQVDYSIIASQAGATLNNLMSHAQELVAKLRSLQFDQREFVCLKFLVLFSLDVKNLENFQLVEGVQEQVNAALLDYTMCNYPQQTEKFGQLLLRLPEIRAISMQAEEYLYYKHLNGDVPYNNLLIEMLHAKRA
T1 sequence (O00482 299-541): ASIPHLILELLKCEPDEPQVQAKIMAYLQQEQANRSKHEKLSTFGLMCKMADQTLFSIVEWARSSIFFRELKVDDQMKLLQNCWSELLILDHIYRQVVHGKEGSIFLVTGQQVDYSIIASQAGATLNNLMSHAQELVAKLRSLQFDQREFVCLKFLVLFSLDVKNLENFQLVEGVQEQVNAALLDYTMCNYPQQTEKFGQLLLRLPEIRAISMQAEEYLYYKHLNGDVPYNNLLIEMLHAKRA
Sequence of H390A-LRH-1 (O00482 whole entry H390A): as the sequence (O00482 whole entry) above, with H390A counted along it

Structure (SMILES)	ΔTm at 50 µM (LRH-1 LBD) [°C]	Relative Efficacy (LRH-1)	EC50 (LRH-1; [3]) [nM]	also measured
CCCCCCCCCCCC(=O)OC[C@H](COP(=O)([O-])OCC[N+](C)(C)C)OC(=O)CCCCCCCCCCC [DLPC, dilauroyl-phosphatidylcholine]	–	–	–	bile acid levels ([1]; DLPC treatment, mouse): increases bile acid levels; hepatic triglycerides and serum glucose ([1]; DLPC treatment, mouse): lowers hepatic triglycerides and serum glucose; circulating insulin, triglycerides, and free fatty acids ([1]; diabetic mice fed DLPC): reduced quantities; glucose tolerance / glucose homeostasis [1, 2]: improves glucose homeostasis; also recorded: improved glucose tolerance; hepatic fat accumulation / hepatic steatosis [1, 2]: decreases hepatic steatosis; also recorded: reduced hepatic fat accumulation
C=C(c1ccccc1)C12CCC(O)C1CC(CCCCCCOP(=O)([O-])OCC[N+](C)(C)C)=C2c1ccccc1 (stereo not drawn) [Compound 7g, 6-(6-exo-hydroxy-3-phenyl-3a-(1-phenylvinyl)-1,3a,4,5,6,6a-hexahydropentalen-2-yl)hexyl(2-(trimethylammonio)ethyl) phosphate]	< 1	0.00	–	EC50 (μM) (LRH-1; [3]): cnc
C=C(c1ccccc1)[C@@]12CC[C@@H](O)[C@@H]1CC(CCCCCCCCO)=C2c1ccccc1 (relative stereo) [Compound 9e, Exo-5-(8-hydroxyoctyl)-4-phenyl-3a-(1-phenylvinyl)-1,2,3,3a,6,6a-hexahydropentalen-1-ol]	4	1.52	700	–
C=C(c1ccccc1)[C@@]12CC[C@@H](O)C1CC(CCCCCCCCOC(C)=O)=C2c1ccccc1 (stereo partly drawn) [Compound 47-exo, (Exo or Endo) 8-(6-hydroxy-3-phenyl-3a-(1-phenylvinyl)-1,3a,4,5,6,6a-hexahydropentalen-2-yl)octyl acetate]	1.5	3.70	700	–
C=C(c1ccccc1)[C@@]12CC[C@@H](O)[C@@H]1CC(CCCCCCCCCOP(=O)([O-])OCC[N+](C)(C)C)=C2c1ccccc1 (relative stereo) [Compound 10g, 9-(6-exo-hydroxy-3-phenyl-3a-(1-phenylvinyl)-1,3a,4,5,6,6a-hexahydropentalen-2-yl)nonyl (2-(trimethylammonio)ethyl) phosphate]	< 1	2.74	2000	–
C=C(c1ccccc1)[C@@]12CC[C@@H](O)C1CC(CCCCCCCCOC(C)=O)=C2c1ccccc1 (stereo partly drawn) [Compound 47-endo, (Exo or Endo) 8-(6-hydroxy-3-phenyl-3a-(1-phenylvinyl)-1,3a,4,5,6,6a-hexahydropentalen-2-yl)octyl acetate]	–	1.48	–	ΔTm (mean +/− SEM) (° C.) (LRH-1 LBD; 50 µM): ns (Ns = Tm changes were less than 1° C.)
C=C(c1ccccc1)[C@@]12CC[C@@H](O)[C@@H]1CC(CCCCCCCCCCOP(=O)([O-])OCC[N+](C)(C)C)=C2c1ccccc1 (relative stereo) [Compound 11g, 10-(6-exo-hydroxy-3-phenyl-3 a-(1-phenylvinyl)-1,3a,4,5,6,6a-hexahydropentalen-2-yl)decyl (2-(trimethylammonio)ethyl) phosphate]	-2.4	2.48	5000	–
CCC/C=C(\CCC)C1=C(c2ccccc2)[C@]2(Nc3ccccc3)CCC[C@@H]2C1 [GSK8470, reference compound]	–	–	–	stabilization of LRH-1-ligand complex / Tm shift (LRH-1 LBD; WT LRH-1): did not affect the melting profile; increase of LRH-1 activity compared with DMSO (LRH-1; WT LRH-1, highest dose): ~2.5 fold; EC50 (LRH-1; WT LRH-1, text): ~4000 nM; activation of H390A-LRH-1 (H390A-LRH-1): completely unable to activate
C=C(c1ccccc1)[C@@]12CC[C@H](N=[N+]=[N-])C1CC(CCCCCC)=C2c1ccccc1 (stereo partly drawn) [Compound 31-endo, (Endo or Exo)-5-hexyl-4-phenyl-3a-(1-phenylvinyl)-1,2,3,3a,6,6a-hexahydropentalen-1-azide]	< 1	0.70	5000	–
C=C(c1ccccc1)C12CCC(O)C1CC(CCCCCOP(=O)([O-])OCC[N+](C)(C)C)=C2c1ccccc1 (stereo not drawn) [Compound 6g, 5-(6-exo-hydroxy-3-phenyl-3a-(1-phenylvinyl)-1,3a,4,5,6,6a-hexahydropentalen-2-yl)pentyl (2-(trimethylammonio)ethyl) phosphate]	< 1	0.00	–	EC50 (μM) (LRH-1; [3]): cnc
C=C(c1ccccc1)[C@@]12CC[C@H](OS(C)(=O)=O)C1CC(CCCCCC)=C2c1ccccc1 (stereo partly drawn) [Compound 30-endo, (Endo or Exo) 5-hexyl-4-phenyl-3a-(1-phenylvinyl)-1,2,3,3a,6,6a-hexahydropentalen-1-yl methanesulfonate]	3	0.72	500	–
C=C(c1ccccc1)[C@@]12CC[C@@H](O)C1CC(CCCCCC)=C2c1cc(O)ccc1F (mixture of isomers) [Compound 16f, (Exo)-4-(2-fluoro-5-hydroxyphenyl)-5-hexyl-3a-(1-phenylvinyl)-1,2,3,3a,6,6a-hexahydropentalen-1-ol]	< 1	0.9	> 30000	–
C=C(c1ccccc1)C12CCC(C#N)C1CC(CCCCCC)=C2c1ccccc1 (stereo not drawn) [Compound 32-endo, (Endo or Exo)-5-hexyl-4-phenyl-3a-(1-phenylvinyl)-1,2,3,3a,6,6a-hexahydropentalene-1-carbonitrile]	–	0	–	ΔTm (mean +/− SEM) (° C.) (LRH-1 LBD): ns (Ns = Tm changes were less than 1° C.)
C=C(c1ccccc1)C12CCC(O)C1CC(CCCCCCCOP(=O)([O-])OCC[N+](C)(C)C)=C2c1ccccc1 (stereo not drawn) [Compound 8g, 7-(6-exo-hydroxy-3-phenyl-3a-(1-phenylvinyl)-1,3a,4,5,6,6a-hexahydropentalen-2-yl)heptyl (2-(trimethylammonio)ethyl) phosphate]	2.9	0.81	–	EC50 (μM) (LRH-1; [3]): cnc
